According to patent publication US8961930B2, “Isatin derivatives for use as in vivo imaging agents” (Imperial Innovations Limited, priority 2008, dated 2015):
“And” between values parts separate entries of the source, which are not always exact repeats. Equal entries are not always repeated.

How the values were obtained:
[1] = tested on: 38C13 murine lymphoma xenograft; assay: Biodistribution of [^18F]11 in 38C13 xenograft-bearing mice after PET scan; type: in vivo, C3H/hej mice; set-up: Biodistribution, Lung: unit not given here
Protocol: The in vivo experimental model of tumour apoptosis was established by subcutaneous injection of 38C13 murine lymphoma cells (5000 cells) on the back of 6-8 weeks old male C3H/hej mice (Harlan, Bicester, Oxfordshire, UK). When xenografts reached ˜100 mm3, the mice were treated with cyclophosphamide (CPA, 100 mg/kg) or vehicle for 24 h and then scanned on a dedicated small animal PET scanner (Siemens Inveon PET module). Anesthetized animals were placed within a thermostatically controlled bed and positioned prone within the scanner. A bolus injection of [^18F]11 (˜100 μCi) was given intravenously (i.v.) via the tail vein cannula and scanning commenced.
Dynamic emission scans were acquired in list-mode format over 60 minutes. The acquired data were then sorted into 0.5-mm sinogram bins and 19 time frames for image reconstruction, which was done by filtered back projection. The image data-sets obtained were visualized using the Siemens Inveon Research Workplace software. Cumulative images of the dynamic data were used for visualization of radiotracer uptake and to define the regions of interest (ROI). The count densities were averaged for each ROI at each of the 19 time points to obtain a time versus radioactivity curve (TAC) for the ROIs (see FIG. 15).
Tumour TAC was normalized to that of whole body at each of the time points to obtain the normalized uptake value (NUV).
After the scan, the different tissues were removed, weighted and placed in tubes for immediate Fluorine-18 radioactivity counting to assess the [^18F]11 biodistribution (See Table 4, below).

[2] = In vivo metabolism studies, radio-HPLC of plasma, liver and urine; set-up: species or system C3H/hej mice; details: for Recovery (plasma): extraction efficiency; for Parent (liver) / Recovery (liver): individual results from two samples
Protocol: [^18F]11 was injected intravenously into tumor-bearing mice and its tissue distribution was measured in selected tissues at 2, 15 and 60 min after injection. […] Furthermore, the in vivo metabolic stability of the radiotracer was determined from plasma and liver samples and, for [^18F]11, in urine samples.
In vivo metabolism studies were also performed in C3H/hej mice. […] Plasma, liver and urine samples were snap-frozen in liquid nitrogen and kept in pre-weighed scintillation counting tubes on dry ice prior to analysis.
Immediately prior to extraction the samples were thawed and placed on ice. For extraction, ice cold acetonitrile (1.5 mL) was added to plasma (0.2 mL); S9 incubation samples (3 mL) containing acetonitrile were also analysed. Each mixture was centrifuged (15493×g, 4° C., 3 min) and the resulting supernatant was evaporated to dryness under vacuum at 40° C. using a rotary evaporator. Liver samples were homogenized with ice cold acetonitrile (1.5 mL) using an IKA Ultra-Turrax T-25 homogeniser prior to centrifugation. The residues were then re-suspended in HPLC mobile phase (1.2 mL) and filtered through a Minisart hydrophilic syringe filter (0.2 μm) (Sartorius, Goettingen, Germany). Urine samples were diluted with HPLC mobile phase, filtered as above. The samples (1 mL) were then analyzed by radio-HPLC on an Agilent 1100 series HPLC system (Agilent Technologies, Stockport, UK) equipped with a γ-RAM Model 3 gamma-detector and the Laura software (IN/US Systems inc., Florida, USA).
The stationary phase comprised of a Waters μBondapak C18 reverse-phase column (300×7.8 mm). […] Furthermore, to assess the fraction of [^18F]9-derived radioactivity associated with the plasma and liver pellets after extraction versus that remaining in the HPLC injectate, the total volume of HPLC injectate was recorded and an aliquot (0.1 mL) removed for counting. The radioactivity in the 0.1 mL aliquot and the pellet were then analyzed by gamma counting (Packard Instruments).

SMILES: O=C1C(=O)N(Cc2cn(CC[18F])nn2)c2ccc(S(=O)(=O)N3CCC[C@H]3COc3ccc(F)cc3F)cc21 [[^18F]11, (S)-1-((1-(2-Fluoroethyl)-1H-[1,2,3]-triazol-4-yl)methyl)-5-(2(2,4-difluorophenoxymethyl)-pyrrolidine-1-sulfonyl)isatin]
- increase in uptake in tumours of CPA-treated mice compared to the vehicle ([1]; 38C13 xenograft, CPA 100 mg/kg 24 h): 2 fold
- Biodistribution, Blood ([1]; CPA): 1.00 ± 0.00 % ID Tumour/blood ratio
- Biodistribution, Blood ([1]; Vehicle): 1.00 ± 0.00 % ID Tumour/blood ratio
- Biodistribution, Bone ([1]; CPA): 0.93 ± 0.07 % ID Tumour/blood ratio
- Biodistribution, Bone ([1]; Vehicle): 0.87 ± 0.10 % ID Tumour/blood ratio
- Biodistribution, Brain ([1]; CPA): 0.23 ± 0.03 % ID Tumour/blood ratio
- Biodistribution, Brain ([1]; Vehicle): 0.24 ± 0.02 % ID Tumour/blood ratio
- Biodistribution, Feces ([1]; CPA): 8.46 ± 0.91 % ID Tumour/blood ratio
- Biodistribution, Feces ([1]; Vehicle): 13.28 ± 2.37 % ID Tumour/blood ratio
- Biodistribution, Heart ([1]; CPA): 1.43 ± 0.16 % ID Tumour/blood ratio
- Biodistribution, Heart ([1]; Vehicle): 1.31 ± 0.10 % ID Tumour/blood ratio
- Biodistribution, Kidney ([1]; CPA): 7.23 ± 0.47 % ID Tumour/blood ratio
- Biodistribution, Kidney ([1]; Vehicle): 7.21 ± 0.33 % ID Tumour/blood ratio
- Biodistribution, L. Intestine ([1]; CPA): 2.78 ± 0.64 % ID Tumour/blood ratio
- Biodistribution, L. Intestine ([1]; Vehicle): 6.07 ± 0.62 % ID Tumour/blood ratio
- Biodistribution, Liver ([1]; CPA): 14.17 ± 1.55 % ID Tumour/blood ratio
- Biodistribution, Liver ([1]; Vehicle): 10.60 ± 0.75 % ID Tumour/blood ratio
- Biodistribution, Lung ([1]; CPA): 5.49 ± 0.66
- Biodistribution, Lung ([1]; Vehicle): 4.27 ± 0.13
- Biodistribution, Muscle ([1]; CPA): 1.20 ± 0.07 % ID Tumour/blood ratio
- Biodistribution, Muscle ([1]; Vehicle): 1.22 ± 0.07 % ID Tumour/blood ratio
- Biodistribution, Plasma ([1]; CPA 100 mg/kg 24 h, 38C13 xenograft): 1.90 ± 0.09 % ID Tumour/blood ratio
- Biodistribution, Plasma ([1]; Vehicle, 38C13 xenograft): 1.98 ± 0.23 % ID Tumour/blood ratio
- Biodistribution, S. Intestine ([1]; CPA): 83.12 ± 70.19 % ID Tumour/blood ratio
- Biodistribution, S. Intestine ([1]; Vehicle): 291.61 ± 28.68 % ID Tumour/blood ratio
- Biodistribution, Spleen ([1]; CPA): 1.81 ± 0.37 % ID Tumour/blood ratio
- Biodistribution, Spleen ([1]; Vehicle): 2.30 ± 0.38 % ID Tumour/blood ratio
- Biodistribution, Stomach ([1]; CPA): 1.62 ± 0.19 % ID Tumour/blood ratio
- Biodistribution, Stomach ([1]; Vehicle): 1.95 ± 0.00 % ID Tumour/blood ratio
- Biodistribution, Tumour ([1]; CPA): 1.24 ± 0.11 % ID Tumour/blood ratio
- Biodistribution, Tumour ([1]; Vehicle): 0.83 ± 0.10 % ID Tumour/blood ratio
- Biodistribution, Urine ([1]; CPA): 43.64 ± 12.24 % ID Tumour/blood ratio
- Biodistribution, Urine ([1]; Vehicle): 116.71 ± 19.47 % ID Tumour/blood ratio
- Recovery (plasma) ([2]; 2 min): 92.1 ± 3.4%
- Parent (liver) ([2]; 2 min): 35.7% and 43.4%
- Recovery (liver) ([2]; 2 min): 79.7% and 86.9%
- Parent (plasma) ([2]; 2 min after i.v. injection, mice, radio-HPLC): 86.1 ± 3.7%
- Recovery (plasma) ([2]; 15 min): 76.8 ± 5.2%
- Parent (liver) ([2]; 15 min): 9.7% and 10.2%
- Recovery (liver) ([2]; 15 min): 67.1% and 68.9%
- Parent (plasma) ([2]; 15 min after i.v. injection, mice, radio-HPLC): 61.3 ± 5.9%
- Recovery (plasma) ([2]; 60 min): 50.9 ± 3.7%
- Parent (liver) ([2]; 60 min): 27.0% and 29.7%
- Recovery (liver) ([2]; 60 min): 46.4% and 65.2%
- Parent (plasma) ([2]; 60 min after i.v. injection, mice, radio-HPLC): 64.8 ± 7.0%
- stability to metabolic degradation in vivo ([2]; radio-HPLC, plasma and liver, mice): relatively more stable to metabolic degradation than [^125I]14
